ChEMBL document CHEMBL1909046, “DrugMatrix in vitro pharmacology data”

Experiments:
[1] = DRUGMATRIX: GABAA, Muscimol, Central radioligand binding (ligand: [3H] Muscimol); format: cell membranes, Rattus norvegicus, Wistar, Brain, Membrane; conditions: Not Active = under 50% inhibition at 10 µM
[2] = target: T1, Substance-K receptor (Homo sapiens, UniProt P21452); format: cell membranes, CHO, Membrane; conditions: cho; further: in other assays of this panel Not Active means under 50% inhibition at 10 µM
T1 sequence (P21452 whole entry): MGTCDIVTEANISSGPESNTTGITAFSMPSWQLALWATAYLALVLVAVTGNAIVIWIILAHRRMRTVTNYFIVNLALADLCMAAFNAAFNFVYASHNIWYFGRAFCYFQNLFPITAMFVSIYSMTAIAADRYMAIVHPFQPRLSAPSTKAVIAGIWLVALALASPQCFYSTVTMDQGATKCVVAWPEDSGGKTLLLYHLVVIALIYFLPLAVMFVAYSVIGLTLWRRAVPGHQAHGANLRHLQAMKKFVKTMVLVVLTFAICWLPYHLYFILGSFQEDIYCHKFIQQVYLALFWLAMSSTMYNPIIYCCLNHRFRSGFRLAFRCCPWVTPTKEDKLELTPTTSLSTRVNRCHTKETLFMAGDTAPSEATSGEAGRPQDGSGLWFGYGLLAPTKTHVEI

[3] = target: Platelet-activating factor receptor (Homo sapiens, UniProt P25105); assay: biochemical; format: tissue-based; conditions: platelet; further: in other assays of this panel Not Active means under 50% inhibition at 10 µM
[4] = target: Mitogen-activated protein kinase 3 (Homo sapiens, UniProt P27361); assay: DRUGMATRIX: Protein Serine/Threonine Kinase, ERK1 enzyme inhibition (substrate: Myelin Basic Protein); design: species or system Escherichia coli; conditions: Not Active = under 50% inhibition at 10 µM
[5] = target: T2, Type-2 angiotensin II receptor (Homo sapiens, UniProt P50052); format: cell-based; conditions: cho-k1; further: in other assays of this panel Not Active means under 50% inhibition at 10 µM
T2 sequence (P50052 whole entry): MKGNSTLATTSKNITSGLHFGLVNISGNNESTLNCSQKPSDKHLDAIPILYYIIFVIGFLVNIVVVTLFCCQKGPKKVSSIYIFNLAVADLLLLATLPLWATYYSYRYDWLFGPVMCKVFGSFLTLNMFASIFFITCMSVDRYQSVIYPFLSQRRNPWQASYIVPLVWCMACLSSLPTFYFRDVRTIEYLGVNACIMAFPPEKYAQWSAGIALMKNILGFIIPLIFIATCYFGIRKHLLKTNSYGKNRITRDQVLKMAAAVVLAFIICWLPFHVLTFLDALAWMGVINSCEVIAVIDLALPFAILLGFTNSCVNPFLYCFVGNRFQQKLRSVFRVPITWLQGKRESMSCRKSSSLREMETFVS

[6] = target: T3, Cysteinyl leukotriene receptor 1 (Homo sapiens, UniProt Q9Y271); format: cell membranes, CHO-K1, Membrane; conditions: cho-k1; further: in other assays of this panel Not Active means under 50% inhibition at 10 µM
T3 sequence (Q9Y271 whole entry): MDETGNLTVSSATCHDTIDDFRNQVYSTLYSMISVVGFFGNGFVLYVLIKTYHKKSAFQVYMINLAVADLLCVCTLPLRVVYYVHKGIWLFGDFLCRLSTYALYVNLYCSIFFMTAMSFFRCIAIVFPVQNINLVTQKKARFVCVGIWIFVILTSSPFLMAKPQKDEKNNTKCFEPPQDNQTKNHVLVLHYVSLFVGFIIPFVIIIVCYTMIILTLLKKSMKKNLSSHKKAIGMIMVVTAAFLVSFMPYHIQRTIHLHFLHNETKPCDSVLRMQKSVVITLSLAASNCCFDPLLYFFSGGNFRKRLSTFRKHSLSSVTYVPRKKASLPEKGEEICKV

[7] = DRUGMATRIX: Imidazoline I2, Central radioligand binding (ligand: [3H] Idazoxan); format: cell membranes, Rattus norvegicus, Wistar, Cerebral cortex, Membrane; conditions: Not Active = under 50% inhibition at 10 µM
[8] = target: Cytochrome P450 2E1 (Homo sapiens, UniProt P05181); conditions: bti-tn-5b1-4; further: in other assays of this panel Not Active means under 50% inhibition at 10 µM
[9] = target: Vascular endothelial growth factor receptor 1 (Homo sapiens, UniProt P17948); format: cell-based; conditions: huvec; further: in other assays of this panel Not Active means under 50% inhibition at 10 µM
[10] = target: C-C chemokine receptor type 5 (Homo sapiens, UniProt P51681); format: cell membranes, Membrane; conditions: hek293; further: in other assays of this panel Not Active means under 50% inhibition at 10 µM
[11] = target: Cannabinoid receptor 1 (Homo sapiens, UniProt P21554); format: cell membranes, Membrane; conditions: chem-1; further: in other assays of this panel Not Active means under 50% inhibition at 10 µM
[12] = target: Nitric oxide synthase 1 (Rattus norvegicus, UniProt P29476); format: tissue-based, Cerebellum; further: in other assays of this panel Not Active means under 50% inhibition at 10 µM
[13] = target: T4, D(4) dopamine receptor (Homo sapiens, UniProt P21917); assay: DRUGMATRIX: Dopamine D4.2 radioligand binding (ligand: [3H] Spiperone); format: cell membranes, CHO-K1, Membrane; conditions: cho-k1; Not Active = under 50% inhibition at 10 µM
T4 sequence (P21917 whole entry): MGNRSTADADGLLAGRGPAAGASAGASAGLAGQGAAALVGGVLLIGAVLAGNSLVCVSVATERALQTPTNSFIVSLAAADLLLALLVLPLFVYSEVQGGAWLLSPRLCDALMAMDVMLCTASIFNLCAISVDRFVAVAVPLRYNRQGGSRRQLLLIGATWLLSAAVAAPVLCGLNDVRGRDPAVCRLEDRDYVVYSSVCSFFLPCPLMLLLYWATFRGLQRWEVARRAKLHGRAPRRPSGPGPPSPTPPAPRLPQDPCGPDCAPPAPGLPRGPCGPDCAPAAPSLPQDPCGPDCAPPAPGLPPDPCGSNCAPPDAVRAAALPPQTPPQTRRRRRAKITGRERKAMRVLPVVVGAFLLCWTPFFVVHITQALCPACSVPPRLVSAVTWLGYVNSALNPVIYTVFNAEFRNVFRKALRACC

[14] = DRUGMATRIX: ATPase, Na+/K+ enzyme inhibition (substrate: ATP); format: tissue-based, Sus scrofa, Heart; conditions: Not Active = under 50% inhibition at 10 µM
[15] = DRUGMATRIX: Sodium/nucleoside co-transporter radioligand binding (ligand: nitrobenzylthioinosine); format: cell membranes, Cavia porcellus, Dunkin-Hartley, Cerebral cortex, Membrane; conditions: Not Active = under 50% inhibition at 10 µM
[16] = target: T5, Adenosine receptor A3 (Homo sapiens, UniProt P0DMS8); format: cell membranes, CHO-K1, Membrane; conditions: cho-k1
T5 sequence (P0DMS8 whole entry): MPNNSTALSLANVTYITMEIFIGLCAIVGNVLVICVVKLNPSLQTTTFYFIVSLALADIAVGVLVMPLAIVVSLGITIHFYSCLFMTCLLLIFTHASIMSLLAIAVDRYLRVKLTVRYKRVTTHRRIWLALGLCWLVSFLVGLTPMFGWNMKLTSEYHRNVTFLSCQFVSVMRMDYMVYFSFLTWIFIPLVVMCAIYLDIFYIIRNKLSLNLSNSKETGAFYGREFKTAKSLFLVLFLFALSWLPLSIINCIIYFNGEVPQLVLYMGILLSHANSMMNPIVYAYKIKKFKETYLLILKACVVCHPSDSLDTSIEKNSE

[17] = target: Vasopressin V1a receptor (Homo sapiens, UniProt P37288); format: cell membranes, Membrane; conditions: hek293; further: in other assays of this panel Not Active means under 50% inhibition at 10 µM
[18] = target: Histamine H2 receptor (Homo sapiens, UniProt P25021); format: cell membranes, CHO-K1, Membrane; conditions: cho-k1; further: in other assays of this panel Not Active means under 50% inhibition at 10 µM
Chain of Histamine H2 receptor (P25021 whole entry): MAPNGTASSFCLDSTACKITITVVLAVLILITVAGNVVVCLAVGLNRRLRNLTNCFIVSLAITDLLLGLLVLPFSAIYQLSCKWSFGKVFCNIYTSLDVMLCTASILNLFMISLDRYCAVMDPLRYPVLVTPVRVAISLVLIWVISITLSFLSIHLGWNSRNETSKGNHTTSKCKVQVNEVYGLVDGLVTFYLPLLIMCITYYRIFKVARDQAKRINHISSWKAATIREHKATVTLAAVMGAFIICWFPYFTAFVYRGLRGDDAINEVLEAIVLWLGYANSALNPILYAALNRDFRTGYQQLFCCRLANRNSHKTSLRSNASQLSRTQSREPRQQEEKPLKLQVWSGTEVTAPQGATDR

Chain of Nitric oxide synthase 1 (P29476 whole entry): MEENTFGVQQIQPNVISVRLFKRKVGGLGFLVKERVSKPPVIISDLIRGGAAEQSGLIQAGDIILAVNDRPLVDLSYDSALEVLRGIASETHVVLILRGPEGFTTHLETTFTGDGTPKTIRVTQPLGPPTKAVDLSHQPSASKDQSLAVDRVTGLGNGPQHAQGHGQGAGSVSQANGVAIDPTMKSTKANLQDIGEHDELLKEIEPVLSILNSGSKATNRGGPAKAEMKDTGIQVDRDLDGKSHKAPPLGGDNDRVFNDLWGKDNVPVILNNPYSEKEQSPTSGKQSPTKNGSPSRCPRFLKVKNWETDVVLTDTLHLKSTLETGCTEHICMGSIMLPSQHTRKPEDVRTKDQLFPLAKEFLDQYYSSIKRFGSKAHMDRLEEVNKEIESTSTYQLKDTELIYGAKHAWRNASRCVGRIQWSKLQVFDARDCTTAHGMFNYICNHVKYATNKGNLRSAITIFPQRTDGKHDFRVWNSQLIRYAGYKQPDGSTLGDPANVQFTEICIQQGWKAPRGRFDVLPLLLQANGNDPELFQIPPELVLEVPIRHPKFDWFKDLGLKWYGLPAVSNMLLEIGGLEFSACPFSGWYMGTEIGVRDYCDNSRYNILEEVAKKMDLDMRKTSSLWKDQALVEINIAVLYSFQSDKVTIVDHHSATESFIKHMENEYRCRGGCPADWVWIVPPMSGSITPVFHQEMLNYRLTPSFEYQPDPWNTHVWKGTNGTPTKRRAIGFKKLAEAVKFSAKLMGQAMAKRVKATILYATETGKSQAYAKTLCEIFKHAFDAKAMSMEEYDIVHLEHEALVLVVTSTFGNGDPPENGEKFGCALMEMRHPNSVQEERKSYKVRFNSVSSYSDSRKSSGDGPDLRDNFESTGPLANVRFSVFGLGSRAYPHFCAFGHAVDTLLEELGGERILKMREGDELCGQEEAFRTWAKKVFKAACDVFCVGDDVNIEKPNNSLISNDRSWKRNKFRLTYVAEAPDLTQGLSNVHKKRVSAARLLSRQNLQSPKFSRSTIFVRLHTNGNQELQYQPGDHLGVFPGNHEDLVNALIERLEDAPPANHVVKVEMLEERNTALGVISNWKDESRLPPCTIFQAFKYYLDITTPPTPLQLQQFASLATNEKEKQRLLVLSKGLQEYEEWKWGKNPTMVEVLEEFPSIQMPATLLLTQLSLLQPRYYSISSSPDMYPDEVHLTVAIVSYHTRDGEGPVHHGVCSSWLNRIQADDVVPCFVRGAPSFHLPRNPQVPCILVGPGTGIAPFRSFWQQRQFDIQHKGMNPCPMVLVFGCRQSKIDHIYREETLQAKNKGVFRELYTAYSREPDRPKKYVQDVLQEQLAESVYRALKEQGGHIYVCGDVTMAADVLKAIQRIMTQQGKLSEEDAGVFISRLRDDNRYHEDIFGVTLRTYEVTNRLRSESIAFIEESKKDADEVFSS
Chain of C-C chemokine receptor type 5 (P51681 whole entry): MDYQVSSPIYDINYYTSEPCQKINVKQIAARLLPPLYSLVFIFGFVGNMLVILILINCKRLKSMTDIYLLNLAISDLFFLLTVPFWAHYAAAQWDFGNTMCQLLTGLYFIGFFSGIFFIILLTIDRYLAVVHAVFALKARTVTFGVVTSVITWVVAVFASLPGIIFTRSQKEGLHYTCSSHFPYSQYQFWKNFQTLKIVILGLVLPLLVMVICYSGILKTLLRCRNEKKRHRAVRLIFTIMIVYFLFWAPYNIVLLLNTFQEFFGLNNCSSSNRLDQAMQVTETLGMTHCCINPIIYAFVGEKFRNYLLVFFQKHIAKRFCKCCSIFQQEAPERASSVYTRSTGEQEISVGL
Chain of Cytochrome P450 2E1 (P05181 whole entry): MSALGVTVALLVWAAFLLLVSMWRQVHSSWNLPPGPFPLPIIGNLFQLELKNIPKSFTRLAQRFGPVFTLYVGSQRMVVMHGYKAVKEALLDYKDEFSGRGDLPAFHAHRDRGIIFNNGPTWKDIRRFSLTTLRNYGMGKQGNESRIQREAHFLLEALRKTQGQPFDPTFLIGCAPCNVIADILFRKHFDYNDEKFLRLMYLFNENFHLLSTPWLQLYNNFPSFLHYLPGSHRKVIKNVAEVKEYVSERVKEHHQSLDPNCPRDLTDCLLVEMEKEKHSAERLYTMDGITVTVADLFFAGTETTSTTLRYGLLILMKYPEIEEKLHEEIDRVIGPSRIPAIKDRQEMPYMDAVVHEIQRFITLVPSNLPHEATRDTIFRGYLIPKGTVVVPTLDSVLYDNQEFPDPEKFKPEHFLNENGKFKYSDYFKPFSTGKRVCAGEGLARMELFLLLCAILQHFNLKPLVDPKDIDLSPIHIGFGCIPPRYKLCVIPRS
Chain of Vascular endothelial growth factor receptor 1 (P17948 whole entry): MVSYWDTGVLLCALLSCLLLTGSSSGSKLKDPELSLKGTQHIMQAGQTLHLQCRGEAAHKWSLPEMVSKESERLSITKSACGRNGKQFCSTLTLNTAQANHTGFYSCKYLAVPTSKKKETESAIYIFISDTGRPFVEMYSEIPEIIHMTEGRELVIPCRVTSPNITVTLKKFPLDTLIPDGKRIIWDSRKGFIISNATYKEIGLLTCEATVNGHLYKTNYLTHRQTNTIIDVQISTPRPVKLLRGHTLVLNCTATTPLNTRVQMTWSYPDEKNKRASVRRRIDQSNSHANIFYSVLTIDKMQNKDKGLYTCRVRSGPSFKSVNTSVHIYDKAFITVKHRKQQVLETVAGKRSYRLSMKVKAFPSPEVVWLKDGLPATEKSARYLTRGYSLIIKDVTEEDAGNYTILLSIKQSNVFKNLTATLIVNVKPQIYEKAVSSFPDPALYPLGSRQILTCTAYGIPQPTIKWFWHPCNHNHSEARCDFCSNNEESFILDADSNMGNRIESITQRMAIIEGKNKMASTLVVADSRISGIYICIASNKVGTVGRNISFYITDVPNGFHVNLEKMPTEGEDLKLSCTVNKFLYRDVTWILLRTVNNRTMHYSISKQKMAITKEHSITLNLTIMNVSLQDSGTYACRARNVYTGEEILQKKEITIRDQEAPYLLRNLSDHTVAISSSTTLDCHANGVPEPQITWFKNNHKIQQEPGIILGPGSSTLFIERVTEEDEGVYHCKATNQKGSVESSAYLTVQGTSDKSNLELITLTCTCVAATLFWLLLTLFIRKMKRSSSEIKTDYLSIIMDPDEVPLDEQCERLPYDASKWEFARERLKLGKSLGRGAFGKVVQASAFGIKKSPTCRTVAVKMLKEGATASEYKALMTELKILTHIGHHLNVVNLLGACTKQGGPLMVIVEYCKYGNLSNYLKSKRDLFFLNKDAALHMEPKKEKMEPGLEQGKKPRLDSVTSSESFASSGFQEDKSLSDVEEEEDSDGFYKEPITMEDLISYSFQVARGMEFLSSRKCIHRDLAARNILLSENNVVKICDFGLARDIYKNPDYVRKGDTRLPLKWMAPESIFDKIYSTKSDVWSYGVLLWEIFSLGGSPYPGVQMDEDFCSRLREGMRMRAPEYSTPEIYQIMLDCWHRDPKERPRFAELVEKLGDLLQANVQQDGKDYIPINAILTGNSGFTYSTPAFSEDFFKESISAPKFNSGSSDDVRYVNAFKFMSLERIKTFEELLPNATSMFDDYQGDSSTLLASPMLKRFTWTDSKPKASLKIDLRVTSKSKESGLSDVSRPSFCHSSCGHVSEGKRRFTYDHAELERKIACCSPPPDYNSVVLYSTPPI
Chain of Platelet-activating factor receptor (P25105 whole entry): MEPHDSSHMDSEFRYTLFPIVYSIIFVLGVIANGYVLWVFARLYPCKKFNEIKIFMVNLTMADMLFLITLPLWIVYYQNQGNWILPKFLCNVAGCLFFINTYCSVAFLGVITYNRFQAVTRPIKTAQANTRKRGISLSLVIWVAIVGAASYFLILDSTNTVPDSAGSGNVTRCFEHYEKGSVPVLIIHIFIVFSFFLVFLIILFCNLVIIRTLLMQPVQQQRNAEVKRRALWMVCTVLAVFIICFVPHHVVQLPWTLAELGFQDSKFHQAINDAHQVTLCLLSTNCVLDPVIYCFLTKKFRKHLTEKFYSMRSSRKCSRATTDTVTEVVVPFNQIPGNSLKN
Chain of Cannabinoid receptor 1 (P21554 whole entry): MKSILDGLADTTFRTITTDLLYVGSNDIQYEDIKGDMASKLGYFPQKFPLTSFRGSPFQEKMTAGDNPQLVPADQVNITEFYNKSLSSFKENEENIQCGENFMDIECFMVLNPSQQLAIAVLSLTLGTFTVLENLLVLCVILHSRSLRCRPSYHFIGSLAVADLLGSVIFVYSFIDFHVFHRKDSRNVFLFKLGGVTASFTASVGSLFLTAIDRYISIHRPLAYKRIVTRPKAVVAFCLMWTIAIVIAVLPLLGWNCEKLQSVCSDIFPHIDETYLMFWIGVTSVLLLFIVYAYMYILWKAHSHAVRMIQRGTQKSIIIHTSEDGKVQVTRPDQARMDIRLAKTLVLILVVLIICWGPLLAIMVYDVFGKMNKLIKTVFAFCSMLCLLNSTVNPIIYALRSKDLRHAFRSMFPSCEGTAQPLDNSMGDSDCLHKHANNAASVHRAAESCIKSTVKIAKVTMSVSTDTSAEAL

Cc1cc(NS(=O)(=O)c2ccc(N)cc2)no1 [SULFAMETHOXAZOLE]
Not Active: IC50 [1] | Ki [1] | IC50 [2] | IC50 [3] | IC50 [4] | IC50 [5] | IC50 [6] | IC50 [7] | Ki [7] | IC50 [8] | Ki [8] | IC50 [9] | IC50 [10] | IC50 [11] | IC50 [12] | IC50 [13] | IC50 [14] | Ki [14] | IC50 [15] | Ki [15] | IC50 [16] | IC50 [17] | IC50 [18]

Nc1ccc(S(N)(=O)=O)cc1 [SULFANILAMIDE]
Not Active: IC50 [1] | Ki [1] | IC50 [2] | IC50 [3] | IC50 [4] | IC50 [5] | IC50 [6] | IC50 [7] | Ki [7] | IC50 [8] | Ki [8] | IC50 [9] | IC50 [10] | IC50 [11] | IC50 [12] | IC50 [13] | IC50 [14] | Ki [14] | IC50 [15] | Ki [15] | IC50 [16] | IC50 [17] | IC50 [18]

Nc1ccc(S(=O)(=O)Nc2ccnn2-c2ccccc2)cc1 [SULFAPHENAZOLE]
Not Active: IC50 [1] | Ki [1] | IC50 [2] | IC50 [3] | IC50 [4] | IC50 [5] | IC50 [6] | IC50 [7] | Ki [7] | IC50 [8] | Ki [8] | IC50 [9] | IC50 [10] | IC50 [11] | IC50 [12] | IC50 [13] | IC50 [14] | Ki [14] | IC50 [15] | Ki [15] | IC50 [16] | IC50 [17] | IC50 [18]

C=CC[C@@H]1/C=C(\C)C[C@H](C)C[C@H](OC)[C@H]2O[C@@](O)(C(=O)C(=O)N3CCCC[C@H]3C(=O)O[C@H](/C(C)=C/[C@@H]3CC[C@@H](O)[C@H](OC)C3)[C@H](C)[C@@H](O)CC1=O)[C@H](C)C[C@@H]2OC [TACROLIMUS ANHYDROUS]
Not Active: IC50 [1] | Ki [1] | IC50 [2] | IC50 [3] | IC50 [4] | IC50 [5] | IC50 [6] | IC50 [7] | Ki [7] | IC50 [8] | Ki [8] | IC50 [9] | IC50 [10] | IC50 [11] | IC50 [12] | IC50 [13] | IC50 [14] | Ki [14] | IC50 [15] | Ki [15] | IC50 [16] | IC50 [17] | IC50 [18]

CC1CN(c2cc3c(cc2F)c(=O)c(C(=O)O)cn3-c2ccc(F)cc2F)CCN1 (stereo not given) [TEMAFLOXACIN]
Not Active: IC50 [1] | Ki [1] | IC50 [2] | IC50 [3] | IC50 [4] | IC50 [5] | IC50 [6] | IC50 [7] | Ki [7] | IC50 [8] | Ki [8] | IC50 [9] | IC50 [10] | IC50 [11] | IC50 [12] | IC50 [13] | IC50 [14] | Ki [14] | IC50 [15] | Ki [15] | IC50 [16] | IC50 [17] | IC50 [18]
